For 80 molecules, RP-LC retention time results are on record in the METLIN SMRT retention time set (Domingo-Almenara et al. 2019).

The nature of the data set: gradient 5% acetonitrile 3 min, to 50% in 2 min, to 85% in 15 min, held 3 min, 100 µL/min. The following applies: column: Zorbax Extend-C18 2.1 x 50 mm; eluents: water / acetonitrile, 0.1% formic acid. The method, boiled down:
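A Zorbax Extend-C18 column (2.1 × 50 mm, 1.8 μm) run at 100 μL/min with water and acetonitrile, both containing 0.1% formic acid, separated mixtures of ~100 pure standards. The HPLC was coupled to a quadrupole time-of-flight mass spectrometer operated in positive and negative ionization mode, with dead and dwell volumes of 40 μL and 900 μL. Each retention time was taken from a computationally picked adduct peak that was then manually inspected.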
Take `Cn1c(=O)c2cc(C(=O)Nc3ccccc3C(N)=O)cnc2n(-c2ccccc2)c1=O`: the RP-LC retention time was found to be 788 s.
`COc1ccc(CCNC(=O)C2CCN(S(C)(=O)=O)c3cc(Cl)ccc3O2)cc1` (stereo not given) had an RP-LC retention time of 889 s.
The result for `O=C(c1ccc(F)c(F)c1)N1CCN(c2cc(-c3cccs3)[nH]n2)CC1` reads 758 s; that for `COc1cccc(CN2CCC3(CCC3O)CC2)n1` (stereo not given), 569 s.
As for `COc1ccc(Cl)cc1NS(=O)(=O)c1cn(CC(C)C)c2ncccc12`, the RP-LC retention time is 765 s.
The same measure for `O=C(NCCCN1CCOCC1)C1=C2CCCN2c2ccc(F)cc2S1(=O)=O`: 576 s; for `COc1cccc(CCC(=O)N2C[C@@H]3C[C@H](NS(C)(=O)=O)[C@H]2C3)c1`: 566 s; for `COCc1c(C(=O)O)nnn1-c1cc(C)ccc1F`: 708 s.
In turn, `CN1C(=O)Cc2cc(C(=O)N3CCCCC3)ccc21` returned an RP-LC retention time of 652 s.
With `Cc1sc(-c2nnc(C(C)C)o2)cc1NS(C)(=O)=O`, the RP-LC retention time stood at 808 s.
The same measure for `Cc1ccc(CNC(=O)c2[nH]c3cc(C)sc3c2CN2CCOCC2)cc1`: 735 s; for `Cc1ccc(CNC(=O)CN2CCc3ccccc3C2C(=O)N2CCC(C)CC2)cc1C` (stereo not given): 1030 s; for `O=C(CCC(=O)c1ccc(F)cc1)Nc1cnn(-c2ncc(N3CCCC3)cn2)c1`: 799 s.
Molecule `CCOC(=O)c1ccc(NC(=O)CCc2ccc3nc(CC)[nH]c3c2)cc1` returned an RP-LC retention time of 646 s.
Consider `CC1(C(=O)NCc2ccc(F)cc2)CCN(C(=O)Nc2ccc(F)cc2)CC1`, for which the RP-LC retention time turned out to be 804 s.
The same measure for `Cc1ccc(C(=O)NCCc2nc3cccnc3n2C)s1`: 596 s; for `COc1cccc(NC(=O)N2CCC(n3c(-c4ccoc4)nc4cccnc43)C2)c1` (stereo not given): 715 s; for `Cc1ccccc1NC(=O)N1CCCC1c1cc(C(C)C)on1` (stereo not given): 890 s.
`O=c1c2nc(-c3ccc(F)cc3)cn2ccn1-c1ccc(F)c(Cl)c1` registered an RP-LC retention time of 888 s.
Consider `CCOC(=O)c1c(C)oc2ncnc(Nc3cc(C)ccc3OC)c12`, for which the RP-LC retention time worked out at 1260 s.
On to `CC1(C)O[C@H]2CC(=O)OC[C@]23[C@H]2CC[C@@]4(C)[C@H](c5ccoc5)OC(=O)C5O[C@]54[C@]2(C)C(=O)C[C@@H]13` (stereo not given in full), for which the RP-LC retention time is 918 s.
The result for `CC(=O)Nc1ccc(C)cc1S(=O)(=O)N1CCC2(CC1)Nc1ccc(C)c(C)c1-n1cccc12` reads 1070 s; that for `COc1ccc(-c2nnc(SCc3ccc(Br)cc3)o2)cc1`, 1170 s; that for `COC(=O)[C@H](CCSC)NC(=O)c1ccc(-n2cnnn2)cc1`, 693 s.
The result for `Cn1c(=O)n([C@H]2CCCN(C(=O)Nc3ccc(F)cc3F)C2)c2ncccc21` reads 752 s; that for `O=C(NCc1ccccc1Cl)c1c(O)c2cccnc2n(-c2ccc(F)cc2)c1=O`, 1240 s; that for `CCCC(NC(=O)c1ccc(F)c(F)c1)C(=O)Nc1nc2ccccc2[nH]1` (stereo not given), 712 s.
`Cc1noc(-c2ccc(NC(=O)COc3ccccc3F)cc2)n1` returned an RP-LC retention time of 832 s.
Consider `Cc1ccccc1N1CCN(S(=O)(=O)c2ccc(-c3nnc(C4CC4)o3)o2)CC1`, for which the RP-LC retention time came out at 1090 s.
The result for `CC(=O)N1CCCN(C2=NS(=O)(=O)C(c3ccc(C)cc3)=C2C)CC1` reads 699 s; that for `Fc1ccc2nc(Nc3nc(-c4ccncc4)cs3)sc2c1`, 588 s; that for `O=C(NCc1cccc(Cl)c1)C1CCN(c2cnc(N3CCCC3)nc2)CC1`, 690 s.
The same measure for `CC1CCN(C(=O)c2cn(-c3cc(-c4nc(C5CC5)no4)ccn3)cn2)CC1`: 907 s; for `COC(=O)c1c(-c2ccc(F)cc2)noc1NCc1ccccn1`: 771 s; for `Cc1ccc(-n2nc(SC(C)C(=O)NC3CC3)ccc2=O)cc1Cl` (stereo not given): 750 s.
The same measure for `Cc1nc2c(c(N(C)CCc3c(C)nn(C)c3C)n1)CCC2`: 588 s; for `Cc1cc(C)c(NC(=O)/C=C/c2ccccc2)c(C)c1`: 898 s; for `C=CCN1C[C@H](C)N([C@H](c2ccccc2)c2ccc(C(=O)N(CC)CC)cc2)C[C@H]1C`: 702 s.
Molecule `CCC1Oc2ccc(S(=O)(=O)N3CCC(C(=O)Nc4ccc(F)cc4)CC3)cc2NC1=O` (stereo not given) came in with an RP-LC retention time of 866 s.
The same measure for `CC1CCN(C(=O)CN2C(=O)C3CCCCN3c3ccc(C(=O)N(C)C)cc32)CC1` (stereo not given): 752 s; for `O=C(CCCc1ccccc1)N1CC(n2ccnc2)C1`: 606 s.
The same measure for `Cc1ccccc1OCCCCn1c(CN2CCOCC2)nc2ccccc21`: 646 s.
`Cc1ccc(CNC(=O)C2(C)Cn3nc(C(=O)NCCN4CCCCC4)cc3C(=O)N2C)cc1` (stereo not given): the RP-LC retention time came to 606 s.
In turn, `CCc1ccccc1NS(=O)(=O)c1ccc2c(c1)CCCC(=O)N2` gave an RP-LC retention time of 756 s.
The same measure for `COc1ccc(C2CC(=O)N(c3ccc(F)c(F)c3)C(=O)C2)cc1`: 910 s.
The molecule `CCC(=O)Nc1ccc2c(c1)N(C(=O)c1cccs1)CCC2` returned an RP-LC retention time of 717 s.
Take `CC(C)NC(=O)C1CCCN(c2nc3ncn(CC(=O)Nc4ccccc4)c(=O)c3s2)C1` (stereo not given): the RP-LC retention time came out at 686 s.
The result for `Cc1cccc(CNc2nnc(-c3nc(C4CC4)no3)c3ccccc23)c1` reads 938 s.
The result for `CSc1ccc(CNC(=O)CCCn2nc(-n3cccc3)c3c(C)cc(C)nc32)cc1` reads 1030 s.
`COc1ccccc1CNc1nccc(-n2ccc(C)n2)n1`: the RP-LC retention time amounted to 805 s.
The same measure for `CC(C)(C)Sc1ccc2nn(CC(=O)Nc3ccccc3C(F)(F)F)c(=O)n2n1`: 816 s; for `CC(=O)Nc1cccc(C(=O)NCCc2c[nH]c3ccc(Cl)cc23)c1`: 736 s; for `Cc1cc(Cl)ccc1NC(=O)CN(C)S(=O)(=O)c1cc(C(=O)N2CCC(C)CC2)n(C)c1`: 934 s.
The same measure for `Clc1cc2c(nn1)Nc1ccccc1S2`: 892 s.
In turn, `COc1ccc(C(=O)N2C[C@@H](Oc3cccnc3)C[C@H]2C(=O)NC2CC2)cn1` returned an RP-LC retention time of 562 s.
The result for `CCC(C)n1c(=O)c2ccccc2n(Cc2nc(-c3ccccc3)no2)c1=O` (stereo not given) reads 1190 s.
The result for `Cc1nc(NC(=O)Cn2nc3c(cc2=O)CCCCC3)sc1C` reads 786 s.
On to `Cc1ccc(S(=O)(=O)N2CCCCC2)cc1-c1nnc(-c2ccc(F)cc2)o1`, for which the RP-LC retention time is 1110 s.
The same measure for `CSc1ccc(-c2nc3ncccn3c2Nc2cccc(Cl)c2C)cc1`: 968 s; for `NC(=O)C1(c2cccc(F)c2)CC1`: 694 s.
Take `Cc1ccc(CNC(=O)c2nc(Nc3ccc(F)cc3)c3ccccc3n2)o1`: the RP-LC retention time turned out to be 784 s.
For the molecule `CCc1ccc(NC(=O)Cn2c(C)nc3cc4c(cc32)OCCO4)cc1`, the RP-LC retention time amounted to 668 s.
The same measure for `CC(=O)N(C)CCc1noc(-c2ccc(C(=O)NCCC(C)C)cc2)n1`: 733 s; for `Cc1cc(C)c2c(CN3CCN(c4ccccn4)CC3)cc(=O)oc2c1`: 672 s; for `CCCNC(=O)CCc1nc2ccccc2n(CC(=O)Nc2ccccc2C(=O)OC)c1=O`: 843 s.
`CCOC(=O)c1nc(N2CCC(Cc3ccccc3)CC2)c2ccccc2n1` displayed an RP-LC retention time of 979 s.
In turn, `Cc1nc(-c2cn(C(C)C)c3ncccc23)sc1C(=O)NCc1ccccc1F` gave an RP-LC retention time of 1030 s.
The same measure for `CC(C)CN1C(=O)c2ccccc2C(C(=O)NCCCN2CCN(C)CC2)C1c1cccs1` (stereo not given): 607 s; for `CCCCS(=O)(=O)N1CC(c2nc(C)no2)C2(CCOCC2)C1` (stereo not given): 783 s.
In turn, `O=C(NCCN1CCCC1)c1nc(Nc2ccc(F)cc2)c2ccccc2n1` displayed an RP-LC retention time of 689 s.
`Cc1ccc(S(=O)(=O)NC(C)c2nc(-c3ccc(NS(C)(=O)=O)cc3)no2)cc1` (stereo not given) displayed an RP-LC retention time of 817 s.
The same measure for `Cc1ccc(NC(=O)c2cn(C)nc2S(=O)(=O)N2CCSCC2)cc1Cl`: 1080 s; for `O=C(Cc1csc(-c2ccccc2)n1)Nc1nc(-c2ccc(Cl)cc2)cs1`: 1210 s; for `Cc1ccc(Cl)cc1N1CCN(C(=O)c2c(C)oc3c2C2=NCCN2C=N3)CC1`: 705 s.
The same measure for `Cn1nc(C(=O)N2CCCC2)c2c1CCN(C(=O)CCC(=O)NCCC1=CCCCC1)C2`: 734 s; for `O=C1c2cccc3cccc(c23)C(=O)N1CCCC(=O)N1CCc2ccccc21`: 908 s.
The same measure for `O=C(Nc1ccc(-n2cnc(C(=O)N3CCC(Cc4ccccc4)CC3)c2)nc1)C1CC1`: 860 s.
In turn, `O=C(Cn1ccnc1-c1ccnc(N2CCCC2)c1)NCc1ccc(Cl)cc1` had an RP-LC retention time of 601 s.
The same measure for `COc1ccc(C(=O)N2CCC3(CC2)N=C(c2ccccc2)NO3)c(OC)c1`: 755 s.
Molecule `Cn1c(=O)c2cc(C(=O)Nc3ccc4c(c3)OCCO4)cnc2n(-c2ccc(F)cc2)c1=O` gave an RP-LC retention time of 856 s.
